Laboratory results as given in patent US7405205B2, “Antitumor antisense sequences directed against R1 and R2 components of ribonucleotide reductase” (Lorus Therapeutics Inc., priority 1996, dated 2008).
Strand notation (5' to 3'): a small letter for the sugar, then the base; units joined by * are phosphorothioate-linked, units joined directly phosphodiester-linked; [ ] holds rarer units or linkages, { } end groups; capitals alone tell only the bases. d = 2'-deoxy (DNA)

Experiments:
Type in all cases: cell-based, human
[1] = system: T24 bladder cell carcinoma; test: Relative colony forming efficiency after antisense treatment (Table 13); conditions: 0.2 μM antisense oligodeoxyribonucleotide phosphorothioate; T24 cells; averages of 2-8 determinations
[2] = system: MIA PaCa-2 pancreatic cell carcinoma; test: as above; conditions: 0.2 μM antisense oligodeoxyribonucleotide phosphorothioate; MIA PaCa-2 cells; averages of 2-8 determinations
A549 lung cell carcinoma = test: as above; conditions: 0.2 μM antisense oligodeoxyribonucleotide phosphorothioate; A549 cells; averages of 2-8 determinations
[3] = system: PC-3 prostrate cell adenocarcinoma; test: as above; conditions: 0.2 μM antisense oligodeoxyribonucleotide phosphorothioate; PC-3 cells; averages of 2-8 determinations
[4] = system: HCT116 colon cell carcinoma; test: as above; conditions: 0.2 μM antisense oligodeoxyribonucleotide phosphorothioate; HCT116 cells; averages of 2-8 determinations
[5] = system: HepG2 hepatocellular carcinoma; test: Relative colony forming efficiency after antisense treatment (Table 13, FIG. 12); conditions: 0.2 μM antisense oligodeoxyribonucleotide phosphorothioate; HepG2 cells; averages of 2-8 determinations

Sequence | Reduced relative colony forming efficiency, expressed as % inhibition, T24 [1] [%] | Reduced relative colony forming efficiency, expressed as % inhibition, MIA PaCa-2 [2] [%] | Reduced relative colony forming efficiency, expressed as % inhibition, A549 (A549 lung cell carcinoma) [%] | Reduced relative colony forming efficiency, expressed as % inhibition, PC-3 [3] [%] | Reduced relative colony forming efficiency, expressed as % inhibition, HCT116 [4] [%] | Reduced relative colony forming efficiency, expressed as % inhibition, HepG2 [5] [%]
ATGGTACTCGATGGGGAAGA (dA*dT*dG*dG*dT*dA*dC*dT*dC*dG*dA*dT*dG*dG*dG*dG*dA*dA*dG*dA) [AS-II-439-20] | 67.84 | 92.69 | 76.46 | 77.66 | 64.7 | 73.04
TGGGACAGGGTGCACGGGCG (antisense dT*dG*dG*dG*dA*dC*dA*dG*dG*dG*dT*dG*dC*dA*dC*dG*dG*dG*dC*dG) [AS-II-130-20] | 51.94 | 82.11 | 86.48 | 74.66 | 57.98 | 94.28
TTCTGGCAAAAGGTGATACT (DNA, all phosphorothioate, methylation of C not given here) [AS-II-1538-20] | 67.29 | 50.62 | 90.34 | 84.71 | 51.28 | 96.84
TTGTGTACCAGGTGTTTGAA (DNA, all phosphorothioate, methylation of C not given here) [AS-II-1023-20] | 58.26 | 42.82 | 34.52 | 87.63 |  | 
CGGCTCATCCTCCACGC (dC*dG*dG*dC*dT*dC*dA*dT*dC*dC*dT*dC*dC*dA*dC*dG*dC) [AS-II-391-17] |  | 26.35 |  | 93.25 |  | 60.64
CCTCTGATACTCGCCTACTC (DNA, all phosphorothioate, methylation of C not given here) [AS-II-1288-20] | 56.75 | 80.71 | 61.04 | 93.55 | 66.43 | 80.41
AGCCTCTGCCTTCTTATACA (dA*dG*dC*dC*dT*dC*dT*dG*dC*dC*dT*dT*dC*dT*dT*dA*dT*dA*dC*dA; antisense) [AS-II-472-20] | 69.26 | 97.13 | 96.99 | 90.7 | 67.23 | 
GAAGTCAGCATCCAAGGTAA (DNA, all phosphorothioate, methylation of C not given here) [AS-II-1342-20] | 59.76 | 73.77 | 65.67 | 89.84 | 73.74 | 82.2
ATCCAGCGCAAGGCCCAGTC (antisense; DNA, all phosphorothioate, methylation of C not given here) [AS-II-816-20] | 73.91 | 93.21 | 78.4 | 94.08 | 88.22 | 93.08
GAAACCAAATAAATCAAGCT (DNA, all phosphorothioate, methylation of C not given here) [AS-II-1790-20] |  |  |  | 87.86 |  | 
CAAATGGGTTCTCTACTCTG (DNA, all phosphorothioate, methylation of C not given here) [AS-II-1217-20] | 66.36 | 34.85 | 91.49 | 81.03 | 68.68 | 
AAGCGGCGGGGGTTTTCTCT (dA*dA*dG*dC*dG*dG*dC*dG*dG*dG*dG*dG*dT*dT*dT*dT*dC*dT*dC*dT; antisense) [AS-II-414-20] | 11.67 | 36.11 | 12.44 | 60.94 | 19.1 | 30.89
CCGTGGGCTCCTGGAAGATC (dC*dC*dG*dT*dG*dG*dG*dC*dT*dC*dC*dT*dG*dG*dA*dA*dG*dA*dT*dC; antisense) [AS-II-344-20] |  |  |  | 80.06 |  | 
CCAGCACTATAAACAGACAG (DNA, all phosphorothioate, methylation of C not given here) [AS-II-1517-20] |  |  |  | 91.75 |  | 
GCATCCAAGGTAAAAGAATT (DNA, all phosphorothioate, methylation of C not given here) [AS-II-1335-20] | 59.95 | 78.78 | 78.59 | 90.04 | 67.87 | 72.98
GCGGCGGGGGTTTTCTCTCA (dG*dC*dG*dG*dC*dG*dG*dG*dG*dG*dT*dT*dT*dT*dC*dT*dC*dT*dC*dA; antisense) [AS-II-412-20] | 22.2 | 55.25 | 43.78 | 73.96 | 27.98 | 26.23
GACGGCTGGGACAGGGTGCA (antisense dG*dA*dC*dG*dG*dC*dT*dG*dG*dG*dA*dC*dA*dG*dG*dG*dT*dG*dC*dA) [AS-II-134-20] |  |  |  | 77.51 |  | 
TCCTCGCGGTCTTGCTGGCC (dT*dC*dC*dT*dC*dG*dC*dG*dG*dT*dC*dT*dT*dG*dC*dT*dG*dG*dC*dC; antisense) [AS-II-323-20] |  | 97.55 | 91.24 | 79.76 | 55.8 | 96.39
ACTGCCATTGTCACTGCTAT (DNA, all phosphorothioate, methylation of C not given here) [AS-II-1581-20] | 68.22 | 24.07 | 90.55 | 85.83 | 66.85 | 93.07
GAAGCCATAGAAACAGCGGG (antisense; DNA, all phosphorothioate, methylation of C not given here) [AS-II-667-20] | 70.48 | 85.26 | 70.3 | 91.8 | 76.9 | 88.23
TCAGCATCCAAGGTAAAAGA (DNA, all phosphorothioate, methylation of C not given here) [AS-II-1338-20] | 63.16 | 79.17 | 63.93 | 93.75 | 74.73 | 80.41
